In patent US7465805B2, “Isoxazoline derivatives and their use as herbicides” (Syngenta Limited, priority 2004, dated 2008):

Legend:
[1] = system: Monocotyledonous and dicotyledonous test plants; test: Herbicidal action, application pre-emergence (Example B1); assay type: in vivo; parameters: key: 10=total damage to plant; 0=no damage to plant; conditions: 1000 g/ha, scale 10=total damage to plant, 0=no damage to plant, evaluated after 9 or 13 days
Protocol: Monocotyledonous and dicotyledonous test plants were sown in sterilised standard soil in seed trays each having 96 cells. After one day (pre-emergence) or after 8 to 9 days cultivation (post-emergence) under controlled conditions in a climatic chamber (cultivation at 17/23° C.; 13 hours light; 50-60% humidity; after application at 19/24° C.), the plants were treated with an aqueous spray solution of 1000 mg/l of the active ingredient used (including 10% DMSO as solvent). The plants were grown on in the climatic chamber until the test was evaluated (10=total damage to plant, 0=no damage to plant) after 9 or 13 days.

maize (Marista) = test: Pre-emergent safening test on maize (Example E1); assay type: in vivo; conditions: Comp. 1.01 WP 25% AW/W alone, evaluated after 14 days
Protocol: The test plants were sown in seed trays under greenhouse conditions. A standard earth was used as the culture substrate. In a pre-emergent stage, the herbicides were applied both by themselves and in a mixture with safeners to the soil surface. The application was carried out with an aqueous suspension of the test substances, prepared from a 25% wettable powder (Example F3, b according to WO 97/34485) or from a suspension concentrate (Example F8 according to WO 97/34485), to achieve a field equivalent of 200 1/ha. The tests were evaluated after 14 days (100%=plants completely dead; 0%=no phytotoxic action on the plants).

CC1(C)CC(S(=N)(=O)Cc2c(F)cccc2F)=NO1 (stereo not drawn) [Comp. 1.01]
Herbicidal action on Agrostis (damage rating) ([1]; Agrostis): 10
Herbicidal action on Digitaria (damage rating) ([1]; Digitaria): 10
Herbicidal action on Poa (damage rating) ([1]; Poa): 10
Herbicidal action on Setaria (damage rating) ([1]; Setaria): 9
phytotoxic action on maize (100%=plants completely dead; 0%=no phytotoxic action on the plants) (maize (Marista); 200 g/ha): 67.5%
phytotoxic action on maize (100%=plants completely dead; 0%=no phytotoxic action on the plants) (maize (Marista); 400 g/ha): 62.5%
